≈ marks a conversion by molar mass, not a printed value.
Columns and labels:
Type in all cases: functional
Nakataea oryzae = assay: Fungicidal activity against Magnaporthe salvinii by agar dilution method
Pyricularia oryzae [1] = assay: Fungicidal activity against Magnaporthe oryzae by agar dilution method
Rhizoctonia solani [2] = assay: Fungicidal activity against Rhizoctonia solani by agar dilution method
Bipolaris oryzae = assay: Fungicidal activity against Bipolaris oryzae by agar dilution method
Rhizoctonia solani [3] = assay: In vivo fungicidal activity against Rhizoctonia solani in rice seedlings assessed as control of sheath blight disease at 250 ppm by curative foliar treatment
Rhizoctonia solani [4] = assay: In vivo fungicidal activity against Rhizoctonia solani in rice seedlings assessed as control of sheath blight disease at 500 ppm by curative foliar treatment
Pyricularia oryzae [5] = assay: Fungicidal activity against Magnaporthe oryzae in rice seedlings assessed as control of rice blast at 500 ppm by curative foliar treatment
Fusarium fujikuroi [6] = assay: Fungicidal activity against Fusarium fujikuroi assessed as infected rice seedlings in seed disinfection against bakanae disease at 1000 ppm by soaking method
Fusarium fujikuroi [7] = assay: Fungicidal activity against Fusarium fujikuroi by agar dilution method
Pyricularia oryzae [8] = assay: Fungicidal activity against Magnaporthe oryzae in rice seedlings assessed as control of rice blast at 500 ppm by preventive foliar treatment

SMILES: NC(=O)c1c(N)oc2ccc(Cl)cc2c1=O
- MIC (Nakataea oryzae): 12.5 µg/mL (≈ 52.4 µM)
- MIC (Pyricularia oryzae [1]): 3.12 µg/mL (≈ 13.1 µM)
- MIC (Rhizoctonia solani [2]): 6.25 µg/mL (≈ 26.2 µM)
- MIC (Bipolaris oryzae): > 100 µg/mL
- Activity (Rhizoctonia solani [3]): 96%

SMILES: NC(=O)c1c(N)oc2ccc(I)cc2c1=O
- Activity (Rhizoctonia solani [4]): 100%
- MIC (Nakataea oryzae): 3.12 µg/mL (≈ 9.45 µM)
- MIC (Pyricularia oryzae [1]): 3.12 µg/mL (≈ 9.45 µM)
- MIC (Rhizoctonia solani [2]): 12.5 µg/mL (≈ 37.9 µM)
- MIC (Bipolaris oryzae): 12.5 µg/mL (≈ 37.9 µM)

SMILES: N#Cc1c(N)oc2ccccc2c1=O
- Activity (Rhizoctonia solani [4]): 0%
- MIC (Nakataea oryzae): > 100 µg/mL
- MIC (Pyricularia oryzae [1]): > 100 µg/mL
- MIC (Rhizoctonia solani [2]): > 100 µg/mL
- MIC (Bipolaris oryzae): > 100 µg/mL

SMILES: CCc1ccc2oc(N)c(C(N)=O)c(=O)c2c1
- MIC (Pyricularia oryzae [1]): 0.78 µg/mL (≈ 3.36 µM)
- MIC (Rhizoctonia solani [2]): 3.25 µg/mL (≈ 14 µM)
- MIC (Bipolaris oryzae): 25 µg/mL (≈ 108 µM)
- Activity (Rhizoctonia solani [3]): 90%

SMILES: CC(C)(C)c1ccc2oc3nc[nH]c(=O)c3c(=O)c2c1
- Activity (Rhizoctonia solani [4]): 0%
- MIC (Nakataea oryzae): > 100 µg/mL
- MIC (Pyricularia oryzae [1]): > 100 µg/mL
- MIC (Rhizoctonia solani [2]): > 100 µg/mL
- MIC (Bipolaris oryzae): > 100 µg/mL

SMILES: CC(C)C(C)(C)c1ccc2oc(N)c(C(N)=O)c(=O)c2c1
- Activity (Rhizoctonia solani [4]): 100%
- MIC (Nakataea oryzae): 6.25 µg/mL (≈ 21.7 µM)
- MIC (Pyricularia oryzae [1]): 3.12 µg/mL (≈ 10.8 µM)
- MIC (Rhizoctonia solani [2]): > 100 µg/mL
- MIC (Bipolaris oryzae): > 100 µg/mL

SMILES: NC(=O)c1c(N)oc2ccc(F)cc2c1=O
- Activity (Rhizoctonia solani [4]): 100%
- MIC (Nakataea oryzae): 25 µg/mL (≈ 113 µM)
- MIC (Pyricularia oryzae [1]): 25 µg/mL (≈ 113 µM)
- MIC (Rhizoctonia solani [2]): 12.5 µg/mL (≈ 56.3 µM)
- MIC (Bipolaris oryzae): > 100 µg/mL

SMILES: Cc1ccc2oc(N)c(C(N)=O)c(=O)c2c1
- MIC (Nakataea oryzae): 6.25 µg/mL (≈ 28.6 µM)
- MIC (Pyricularia oryzae [1]): 6.25 µg/mL (≈ 28.6 µM)
- MIC (Rhizoctonia solani [2]): 6.25 µg/mL (≈ 28.6 µM)
- MIC (Bipolaris oryzae): 25 µg/mL (≈ 115 µM)
- Activity (Rhizoctonia solani [3]): 100%

SMILES: CCC(C)(CC)c1ccc2oc(N)c(C(N)=O)c(=O)c2c1
- Activity (Rhizoctonia solani [4]): 100%
- MIC (Nakataea oryzae): 3.12 µg/mL (≈ 10.8 µM)
- MIC (Pyricularia oryzae [1]): 1.56 µg/mL (≈ 5.41 µM)
- MIC (Rhizoctonia solani [2]): > 100 µg/mL
- MIC (Bipolaris oryzae): > 100 µg/mL

SMILES: CC(C)(C)c1ccc2oc(N)c(C(N)=O)c(=O)c2c1
- Activity (Pyricularia oryzae [5]): 96%
- Activity (Rhizoctonia solani [4]): 100%
- MIC (Nakataea oryzae): 0.78 µg/mL (≈ 3 µM)
- Activity (Fusarium fujikuroi [6]): 3%
- MIC (Fusarium fujikuroi [7]): 12.5 µg/mL (≈ 48 µM)
- MIC (Pyricularia oryzae [1]): 0.78 µg/mL (≈ 3 µM)
- MIC (Rhizoctonia solani [2]): 0.78 µg/mL (≈ 3 µM)
- MIC (Bipolaris oryzae): 6.25 µg/mL (≈ 24 µM)
- Activity (Pyricularia oryzae [8]): 81%

SMILES: CC(C)c1ccc2oc(N)c(C(N)=O)c(=O)c2c1
- Activity (Pyricularia oryzae [5]): 94%
- Activity (Rhizoctonia solani [4]): 85%
- MIC (Nakataea oryzae): 3.12 µg/mL (≈ 12.7 µM)
- Activity (Fusarium fujikuroi [6]): 6%
- MIC (Fusarium fujikuroi [7]): > 100 µg/mL
- MIC (Pyricularia oryzae [1]): 1.56 µg/mL (≈ 6.33 µM)
- MIC (Rhizoctonia solani [2]): 100 µg/mL (≈ 406 µM)
- MIC (Bipolaris oryzae): 100 µg/mL (≈ 406 µM)
- Activity (Pyricularia oryzae [8]): 74%

SMILES: NC(=O)c1c(N)oc2c(Cl)cc(Cl)cc2c1=O
- Activity (Rhizoctonia solani [4]): 100%
- MIC (Nakataea oryzae): > 100 µg/mL
- MIC (Pyricularia oryzae [1]): > 100 µg/mL
- MIC (Rhizoctonia solani [2]): 100 µg/mL (≈ 366 µM)
- MIC (Bipolaris oryzae): > 100 µg/mL

SMILES: NC(=O)c1c(N)oc2ccccc2c1=O
- MIC (Nakataea oryzae): 12.5 µg/mL (≈ 61.2 µM)
- MIC (Pyricularia oryzae [1]): 25 µg/mL (≈ 122 µM)
- MIC (Rhizoctonia solani [2]): 12.5 µg/mL (≈ 61.2 µM)
- MIC (Bipolaris oryzae): > 100 µg/mL
- Activity (Rhizoctonia solani [3]): 100%

SMILES: CNc1oc2ccc(C(C)(C)C)cc2c(=O)c1C(N)=O
- Activity (Rhizoctonia solani [4]): 100%
- MIC (Nakataea oryzae): 1.56 µg/mL (≈ 5.69 µM)
- MIC (Pyricularia oryzae [1]): 1.56 µg/mL (≈ 5.69 µM)
- MIC (Rhizoctonia solani [2]): 25 µg/mL (≈ 91.1 µM)
- MIC (Bipolaris oryzae): 25 µg/mL (≈ 91.1 µM)

SMILES: CCCCc1ccc2oc(N)c(C(N)=O)c(=O)c2c1
- Activity (Rhizoctonia solani [4]): 90%
- MIC (Nakataea oryzae): 50 µg/mL (≈ 192 µM)
- MIC (Pyricularia oryzae [1]): 50 µg/mL (≈ 192 µM)
- MIC (Rhizoctonia solani [2]): > 100 µg/mL
- MIC (Bipolaris oryzae): > 100 µg/mL

SMILES: NC(=O)c1c(N)oc2ccc(Br)cc2c1=O
- Activity (Rhizoctonia solani [4]): 100%
- MIC (Nakataea oryzae): 1.56 µg/mL (≈ 5.51 µM)
- MIC (Pyricularia oryzae [1]): 1.56 µg/mL (≈ 5.51 µM)
- MIC (Rhizoctonia solani [2]): 3.12 µg/mL (≈ 11 µM)
- MIC (Bipolaris oryzae): > 100 µg/mL

SMILES: CC(=O)Nc1oc2ccc(C(C)(C)C)cc2c(=O)c1C(N)=O
- Activity (Rhizoctonia solani [4]): 100%
- MIC (Nakataea oryzae): 6.25 µg/mL (≈ 20.7 µM)
- MIC (Pyricularia oryzae [1]): 3.12 µg/mL (≈ 10.3 µM)
- MIC (Rhizoctonia solani [2]): 6.25 µg/mL (≈ 20.7 µM)
- MIC (Bipolaris oryzae): 100 µg/mL (≈ 331 µM)

SMILES: NC(=O)c1c(N)oc2c(Br)cc(Br)cc2c1=O
- Activity (Rhizoctonia solani [4]): 76%
- MIC (Nakataea oryzae): > 100 µg/mL
- MIC (Pyricularia oryzae [1]): > 100 µg/mL
- MIC (Rhizoctonia solani [2]): > 100 µg/mL
- MIC (Bipolaris oryzae): > 100 µg/mL

SMILES: CNC(=O)Nc1oc2ccc(C(C)(C)C)cc2c(=O)c1C(N)=O
- Activity (Rhizoctonia solani [4]): 100%
- MIC (Nakataea oryzae): 0.78 µg/mL (≈ 2.46 µM)
- MIC (Pyricularia oryzae [1]): 0.78 µg/mL (≈ 2.46 µM)
- MIC (Rhizoctonia solani [2]): > 100 µg/mL
- MIC (Bipolaris oryzae): 100 µg/mL (≈ 315 µM)

SMILES: O=c1[nH]cnc2oc3ccccc3c(=O)c12
- Activity (Rhizoctonia solani [4]): 0%
- MIC (Nakataea oryzae): > 100 µg/mL
- MIC (Pyricularia oryzae [1]): > 100 µg/mL
- MIC (Rhizoctonia solani [2]): > 100 µg/mL
- MIC (Bipolaris oryzae): > 100 µg/mL

SMILES: CCC(C)(C)c1ccc2oc(N)c(C(N)=O)c(=O)c2c1
- Activity (Rhizoctonia solani [4]): 100%
- MIC (Nakataea oryzae): 6.25 µg/mL (≈ 22.8 µM)
- MIC (Pyricularia oryzae [1]): 3.12 µg/mL (≈ 11.4 µM)
- MIC (Rhizoctonia solani [2]): > 100 µg/mL
- MIC (Bipolaris oryzae): 50 µg/mL (≈ 182 µM)

SMILES: CCCC(C)(C)c1ccc2oc(N)c(C(N)=O)c(=O)c2c1
- Activity (Rhizoctonia solani [4]): 100%
- MIC (Nakataea oryzae): 6.25 µg/mL (≈ 21.7 µM)
- MIC (Pyricularia oryzae [1]): 1.56 µg/mL (≈ 5.41 µM)
- MIC (Rhizoctonia solani [2]): > 100 µg/mL
- MIC (Bipolaris oryzae): > 100 µg/mL

SMILES: Cc1oc2ccccc2c(=O)c1C(N)=O
- Activity (Rhizoctonia solani [4]): 0%
- MIC (Nakataea oryzae): > 100 µg/mL
- MIC (Pyricularia oryzae [1]): > 100 µg/mL
- MIC (Rhizoctonia solani [2]): > 100 µg/mL
- MIC (Bipolaris oryzae): > 100 µg/mL

SMILES: CCOC(=O)Nc1oc2ccc(C(C)(C)C)cc2c(=O)c1C(N)=O
- Activity (Rhizoctonia solani [4]): 100%
- MIC (Nakataea oryzae): 25 µg/mL (≈ 75.2 µM)
- MIC (Pyricularia oryzae [1]): 25 µg/mL (≈ 75.2 µM)
- MIC (Rhizoctonia solani [2]): 50 µg/mL (≈ 150 µM)
- MIC (Bipolaris oryzae): > 100 µg/mL

SMILES: C/C(=N/Nc1nc(C)cc(C)n1)c1ccccc1C [FERIMZONE]
- Activity (Pyricularia oryzae [5]): 100%
- Activity (Rhizoctonia solani [4]): 100%
- MIC (Nakataea oryzae): 1.56 µg/mL (≈ 6.13 µM)
- MIC (Fusarium fujikuroi [7]): > 100 µg/mL
- MIC (Pyricularia oryzae [1]): 3.12 µg/mL (≈ 12.3 µM)
- MIC (Rhizoctonia solani [2]): 50 µg/mL (≈ 197 µM)
- MIC (Bipolaris oryzae): 25 µg/mL (≈ 98.3 µM)
- Activity (Pyricularia oryzae [8]): 99%

SMILES: CCC(C)c1ccc2oc(N)c(C(N)=O)c(=O)c2c1 (centres undefined)
- Activity (Pyricularia oryzae [5]): 96%
- Activity (Rhizoctonia solani [4]): 79%
- MIC (Nakataea oryzae): 0.78 µg/mL (≈ 3 µM)
- Activity (Fusarium fujikuroi [6]): 6.5%
- MIC (Fusarium fujikuroi [7]): > 100 µg/mL
- MIC (Pyricularia oryzae [1]): 0.78 µg/mL (≈ 3 µM)
- MIC (Rhizoctonia solani [2]): 6.25 µg/mL (≈ 24 µM)
- MIC (Bipolaris oryzae): 25 µg/mL (≈ 96 µM)
- Activity (Pyricularia oryzae [8]): 19%

SMILES: CC(=O)Nc1oc2ccccc2c(=O)c1C(N)=O
- Activity (Rhizoctonia solani [4]): 90%
- MIC (Nakataea oryzae): 100 µg/mL (≈ 406 µM)
- MIC (Pyricularia oryzae [1]): 50 µg/mL (≈ 203 µM)
- MIC (Rhizoctonia solani [2]): 25 µg/mL (≈ 102 µM)
- MIC (Bipolaris oryzae): > 100 µg/mL

Source: ChEMBL document CHEMBL3046963, “Fungicidal Activity of 2-Aminochromone-3-carboxamides” (1990)
